Source: US20140274971A1, “Systems and Methods of Using Chemically Bound Antibiotics Activated by Infections” (Osteoceramics, Inc., priority 2013, published 2014)
Read-outs that look alike come from different tables or passages of the source.

Legend:
[1] = system: Staph. A.; assay type: cell-based, Staphylococcus aureus
Source text: (§1) The setting solution is aqueous calcium chloride.

[2] = system: Pseudo. A.; assay type: cell-based, Psuedomonus aeruginosa
Source text: as §1

[3] = system: staphylococcus aureus; experiment: Repeated Kirby-Bauer test, ciprofloxacin-doped cement (Example 4); assay type: cell-based
Source text: A Kirby-Bauer test using staphylococcus aureus was repeated for ciprofloxacin-doped cement with more detail. All specimens, and the paper control, were 6 mm diameter.

[4] = system: E. Coli
[5] = system: selected bacterium; assay type: cell-based; details: for effectiveness of other tetracyclines (in words): other experiments, bound to implant
Source text: They were rinsed with deionized water and dried. […] The solutions were saved for bioactivity testing.

[6] = system: Bacillus cereus; experiment: Kirby-Bauer method, tetracycline treated disks, periodontal bacteria; assay type: cell-based; details: disks treated with 0.1 mg/ml, 1 mg/ml and 10 mg/ml; 10^4 to 10^6 levels
Source text: (§2) Because tooth roots are in an anaerobic environment, bacteria were selected from those commonly encountered in periodontal disease for evaluation by the Kirby-Bauer method. They were ATCCJ177i: Bacillus cereus, Corynebacterium spp., Esccherichia coli, Pasteurella multocida and Staphylococcus spp. Each was doped on Mueller-Hinton agar at 10^4 to 10^6 levels.

[7] = system: Corynebacterium spp.; experiment: as above; assay type: cell-based; details: disks treated with 0.1 mg/ml, 1 mg/ml and 10 mg/ml; 10^4 to 10^6 levels
Source text: as §2

[8] = system: Esccherichia coli; experiment: as above; assay type: cell-based; details: disks treated with 0.1 mg/ml, 1 mg/ml and 10 mg/ml; 10^4 to 10^6 levels
Source text: as §2

[9] = system: Pasteurella multocida; experiment: as above; assay type: cell-based; details: disks treated with 0.1 mg/ml, 1 mg/ml and 10 mg/ml; 10^4 to 10^6 levels
Source text: as §2

[10] = system: Staphylococcus spp.; experiment: as above; assay type: cell-based; details: disks treated with 0.1 mg/ml, 1 mg/ml and 10 mg/ml; 10^4 to 10^6 levels
Source text: as §2

[11] = system: bacterial growth; experiment: Mueller-Hinton agar cultures of concretes made of tetracycline-treated grains; assay type: cell-based; details: concretes of treated grains with gypsum, calcium aluminate or zinc phosphate cement; cured 24 hours
Method: These were separated into sizes with sieves, to produce a range of size fractions; 12-20 mesh, 20-35 mesh, 35-65 mesh, 65-270 mesh, and minus 325 mesh. […] The tetracycline bonds to the tricalcium component of the grain surfaces. […] So the tricalcium phosphate phase is interconnected throughout the volume and is exposed at 50% of the surface area. […] The surface area was calculated assuming the particles were spheres of the median radius for the sieve fraction. […] The grains changed from white to orange as a result of the treatment. These grains were used to make cements for filling bone voids, combining 65% of one fraction with 15% of the second, finer, fraction in the series, 5% of the −325 mesh fraction and 15% of cement. Different cements were used, including gypsum, calcium aluminate and zinc phosphate cements. These concretes set in 5 to 10 minutes in a wet environment. After curing 24 hours at 100% humidity and 37° C., disks of these concretes were tested in Mueller-Hinton agar cultures to determine if they would inhibit bacterial growth. […] Thus the concrete prostheses have the properties needed to treat bone voids. Note that the size of the coarse fraction 12-20, […] or 35-65 will depend on the maximum particle size that must not exceed the maximum size of the void to be filled.

[12] = 10^−2 gr/gram of calcium aluminate, 1 Day
[13] = 10^−2 gr/gram of calcium aluminate, 1 Hour
[14] = 10^−2 gr/gram of calcium aluminate, 1 Week
[15] = 10^−2 grams ciprofloxacin per gram of calcium aluminate, one week
[16] = 10^−3 gr/gram of calcium aluminate, 1 Day
[17] = 10^−3 gr/gram of calcium aluminate, 1 Hour
[18] = 10^−3 gr/gram of calcium aluminate, 1 Week
[19] = 10^−4 gr/gram of calcium aluminate, 1 Day
[20] = 10^−4 gr/gram of calcium aluminate, 1 Hour
[21] = 10^−4 gr/gram of calcium aluminate, 1 Week

O=C(O)c1cn(C2CC2)c2cc(N3CCNCC3)c(F)cc2c1=O [ciprofloxacin, Ciprofloxacin]
Kirby-Bauer Inhibition Zone [1, 12]: 29 mm
Kirby-Bauer Inhibition Zone [1, 13]: 34 mm
Kirby-Bauer Inhibition Zone [1, 14]: 32 mm
inhibition (in words) [1, 15]: effective for one week
Kirby-Bauer Inhibition Zone [1, 16]: 5 mm
Kirby-Bauer Inhibition Zone [1, 17]: 27 mm
Kirby-Bauer Inhibition Zone [1, 18]: 21 mm
Kirby-Bauer Inhibition Zone [1, 19]: 0 mm
Kirby-Bauer Inhibition Zone [1, 20]: 7 mm
Kirby-Bauer Inhibition Zone [1, 21]: 0 mm
Kirby-Bauer Inhibition Zone [2, 12]: 35 mm
Kirby-Bauer Inhibition Zone [2, 13]: 44 mm
Kirby-Bauer Inhibition Zone [2, 14]: 39 mm
inhibition (in words) [2, 15]: effective for one week
Kirby-Bauer Inhibition Zone [2, 16]: 19 mm
Kirby-Bauer Inhibition Zone [2, 17]: 34 mm
Kirby-Bauer Inhibition Zone [2, 18]: 21 mm
Kirby-Bauer Inhibition Zone [2, 19]: 0 mm
Kirby-Bauer Inhibition Zone [2, 20]: 21 mm
Kirby-Bauer Inhibition Zone [2, 21]: 0 mm
zone compared with control disk (in words) ([3]; 10^−2 g/g concentration): equivalent to the control disk
zone compared with control disk (in words) ([3]; 10^−3 g/g): somewhat less
effect of rinsing the pellet to remove surface antibiotic ([3]; rinsed vs not rinsed): had no effect
Kirby-Bauer Inhibition Zone [4, 12]: 37 mm
Kirby-Bauer Inhibition Zone [4, 13]: 49 mm
Kirby-Bauer Inhibition Zone [4, 14]: 44 mm
inhibition (in words) [4, 15]: effective for one week
Kirby-Bauer Inhibition Zone [4, 16]: 27 mm
Kirby-Bauer Inhibition Zone [4, 17]: 42 mm
Kirby-Bauer Inhibition Zone [4, 18]: 33 mm
Kirby-Bauer Inhibition Zone [4, 19]: 22 mm
Kirby-Bauer Inhibition Zone ([4]; 10^−4 gr/gram of calcium aluminate, 1 Hour after setting, saline 37° C.): 34 mm
Kirby-Bauer Inhibition Zone [4, 21]: 23 mm

CN(C)[C@@H]1C(O)=C(C(N)=O)C(=O)[C@@]2(O)C(O)=C3C(=O)c4c(O)ccc(Cl)c4[C@@H](O)[C@H]3C[C@@H]12 [democlotetracycline]
effectiveness of other tetracyclines (in words) [5]: effective

CN(C)[C@@H]1C(O)=C(C(N)=O)C(=O)[C@@]2(O)C(O)=C3C(=O)c4c(O)cccc4[C@@](C)(O)[C@H]3[C@H](O)[C@@H]12 [oxytetracycline]
effectiveness of other tetracyclines (in words) [5]: effective

CN(C)[C@@H]1C(=O)C(C(N)=O)=C(O)[C@@]2(O)C(=O)C3=C(O)c4c(O)cccc4[C@@](C)(O)[C@H]3C[C@@H]12 [tetracycline, Tetracycline]
inhibition zones (in words) ([5]; disks made with concentrations of 1 and 10 mg/ml): effective in creating large inhibition zones
bacterial growth adjacent to the disks (in words) [6]: prevented
bacterial growth adjacent to the disks (in words) [7]: prevented
bacterial growth adjacent to the disks (in words) [8]: prevented
bacterial growth adjacent to the disks (in words) [9]: prevented
bacterial growth adjacent to the disks (in words) [10]: prevented
inhibition of bacterial growth by concrete disks (in words) [11]: perform in the same way as the disks in example one
